Experiments:
[1] = tested on: healthy colonic epithelium of the rat; assay: Tissue staining by charged dyes, healthy colonic sacs; details: 15 min incubation, mean±SEM
Protocol: Colonic sacs, of either healthy or inflamed rat colonic tissues, were prepared as described above and filled, in separate studies, with 0.5 ml of aqueous solutions (containing 2% v/v DMSO) of either of the cationic dye, hematoxylin (1 mg/ml), or the anionic dye, eosin B (0.5 mg/ml). The sacs were incubated in 15 ml of PBS containing glucose (10 mM), at 37° C. (glass vial) for 15 min in a shaking bath, after which the sacs were cut open, measured for their surface area (ruler) and rinsed (PBS) three times. The tissues incubated with eosin B were then homogenized in 3 ml of absolute methanol, while the tissues incubated with hematoxylin were homogenized in 3 ml of absolute ethanol. The concentration of dyes in the tissue homogenates was measured spectrophotometrically (Uvikon 933, Kontron Switzerland), at 292 nm (hematoxylin) or 523 nm (eosin B).

[2] = tested on: inflamed colonic epithelium of the rat; assay: Tissue staining by charged dyes, inflamed colonic sacs; details: 15 min incubation, mean±SEM
Protocol: Twenty-four hours prior to colitis induction the rats were deprived of food, but allowed free access to water. The water contained 10 mg/l of the laxatives sennoside-A and sennoside-B (X-Prep Liquid®, Rafa Pharmaceuticals, Israel) and sucrose (200 g/l). With the rats under light ether inhalation anesthesia, colitis was induced by intracolonic administration of 30 mg of dinitrobenzensulfonic acid (DNBS) dissolved in 1 ml of an ethanolic solution 25% (v/v). The solution was instilled slowly over 20 s via a flexible, perforated foley catheter, which was then immediately removed, leaving the rats in an upside down position for another 40 s. Colonic sacs, of either healthy or inflamed rat colonic tissues, were prepared as described above and filled, in separate studies, with 0.5 ml of aqueous solutions (containing 2% v/v DMSO) of either of the cationic dye, hematoxylin (1 mg/ml), or the anionic dye, eosin B (0.5 mg/ml). The sacs were incubated in 15 ml of PBS containing glucose (10 mM), at 37° C. (glass vial) for 15 min in a shaking bath, after which the sacs were cut open, measured for their surface area (ruler) and rinsed (PBS) three times. […] The concentration of dyes in the tissue homogenates was measured spectrophotometrically (Uvikon 933, Kontron Switzerland), at 292 nm (hematoxylin) or 523 nm (eosin B).

[3] = tested on: epithelium of the rat intestine; assay: Tissue uptake of free and liposomal SOD and TMN in intestinal sacs; details: for tissue uptake: 60 min incubation, mean±SEM
Protocol: The abdomens of anesthetized healthy Sabra rats were cut open and 10 cm long segments of the distal colon were excised, separated and rinsed with PBS. Colon sacs (5 cm each) were prepared by tying one end with 3/0 silk suture, filling with 0.4 ml of free or liposomal suspension of either TMN or FITC-SOD (diluted×10 in PBS), and tying at the other end.
The sacs were incubated in 15 ml of PBS, containing 10 mM glucose, at 37° C., in a glass vial in a shaking bath for 60 min. At the end of the incubation, the sacs were cut open, rinsed three times by PBS immersion and weighed. For detection of FITC-SOD attachment and uptake (subsequently referred to generally as uptake, as internalization and attachment cannot be discriminated using these methods), the colon sac preparations were homogenized (Polytron, Kinematicas, Berlin, Germany) in a solution containing isopropanol: pH 9.0 borate buffer 9:1. One milliliter of the homogenate was centrifuged at 14,000 rpm for 15 min. The level of fluorescence in the supernatant was then measured by a spectrofluorimeter (Perkin-Elmer LS-SB, Bucks, England) at λ excitation=495, λ emission=525. For the detection of TMN uptake, tissues were homogenized in water containing 1% v/v TritonX-100. One ml of the homogenate was centrifuged (5000 rpm, 15 min), and TMN concentration was measured by EPR.

jejunal mucosa = assay: Local oxidative stress (hypoxanthine/xanthine oxidase-FeSO4) in perfused rat jejunum; type: in vivo; details: 20 min perfusion pretreatment before hydroxyl radical induction; for tissue LDH activity: mean±SEM
Protocol: Hydroxyl radicals were induced in the jejunum (15 cm long segment) of each of four group of anaesthetized Sabra rats, by the perfusion of a mixture of 6 mM hypoxanthine, 3 U/ml of xanthine oxidase, 10 mM FeSO4 and 1 mM EDTA in saline over 30 min, using a closed rat jejunal loop system at a rate of 1 ml/min, as described elsewhere [Kohen R. et al. J. Biol Chem. 1992, 267:21349-21354].
In separate studies two groups of rats (4 rats in each group) were perfused with either 35 U/ml SOD or liposomal SOD over 20 min. A 10 min saline rinse was then performed, followed by the hydroxyl radicals induction as described above. Similarly, the other two groups (4 rats each) were perfused with 5 mM free TMN or liposomal TMN over 20 min. A 10 min saline rinse was then performed, followed by hydroxyl radicals induction as described above. Control studies included (a) a group of rats, perfused with normal saline over 30 minutes prior to the oxidative damage induction, (b) a group of rats, perfused with normal saline for 20 min (naive control). At the end of each study, the perfused jejunal segment was separated from the anaesthetized animal, the mucosal epithelial layer delicately scraped and homogenized in 5 ml of distilled water on ice.
Assuming that tissue insult would cause leakage of enterocyte contents, the induced damage was characterized by measuring tissue (a) activity of lactate dehydrogenase (LDH) at 340 nm with pyruvic acid as the substrate and NADH as the electron donor. For this purpose, 1 ml of the tissue homogenate was centrifuged at 5000 g for 15 min. LDH activity was measured in the supernatant; (b) potassium levels by atomic absorption. All measurements were repeated four times, and the results were normalized to tissue dry weight.

tumor recurrence = details: animal model, peritoneal wound site; cited from earlier work

Compound | dye attachment to healthy colonic epithelium [1] | dye attachment to inflamed colonic epithelium [2] | tissue uptake relative to free SOD uptake [3] | tissue uptake [3] | tissue potassium levels (jejunal mucosa) | tissue LDH activity (jejunal mucosa) | reduction of tumor recurrence (tumor recurrence)
O=C(O)c1ccccc1-c1c2cc([N+](=O)[O-])c(=O)c(Br)c-2oc2c(Br)c(O)c([N+](=O)[O-])cc12 [eosin B] | 0.12±0.011 μg/cm^2 | 0.19±0.012 μg/cm^2 |  |  |  |  | 
CC1(C)CC(N)CC(C)(C)N1[O] [free TMN, 4-amino tempol] |  |  | 3 fold | 6.8±1.1 % uptake of initial amount | 0.33±0.08 μmol/mg tissue | 9.0±1.3 U/mg tissue | 
Oc1cc2c(cc1O)[C@@H]1c3ccc(O)c(O)c3OC[C@]1(O)C2 [hematoxylin] | 26.2±2.8 μg/cm^2 | 19.6±1.36 μg/cm^2 |  |  |  |  | 
catalase |  |  |  |  |  |  | 40%
superoxide dismutase [native SOD] |  |  |  | 2.5±1.6 % uptake of initial amount | 0.37±0.03 μmol/mg tissue | 11.8±0.3 U/mg tissue | 50%

Source: patent US20070212403A1, “Method for Selecting Cationic or Anionic Liposomes for Treatment of a Mucosa Membrane, and Kit Comprising the Same” (Yissum Research Development Company of the Hebrew …, priority 2003, published 2007)
